In ChEMBL document CHEMBL1201862, “PubChem BioAssay data set” (2004):
The source made the active and inactive calls.

Legend:
[1] = target: T1, Scavenger receptor class B member 1 (Mus musculus, UniProt Q61009); assay: inhibitors of SR-BI-mediated HDL uptake, dose response, cell-based, ldlA[mSR-BI] CHO, DiI fluorescence, dry powder, set 10 (AID 624029); assay type: functional
T1 sequence (Q61009 whole entry): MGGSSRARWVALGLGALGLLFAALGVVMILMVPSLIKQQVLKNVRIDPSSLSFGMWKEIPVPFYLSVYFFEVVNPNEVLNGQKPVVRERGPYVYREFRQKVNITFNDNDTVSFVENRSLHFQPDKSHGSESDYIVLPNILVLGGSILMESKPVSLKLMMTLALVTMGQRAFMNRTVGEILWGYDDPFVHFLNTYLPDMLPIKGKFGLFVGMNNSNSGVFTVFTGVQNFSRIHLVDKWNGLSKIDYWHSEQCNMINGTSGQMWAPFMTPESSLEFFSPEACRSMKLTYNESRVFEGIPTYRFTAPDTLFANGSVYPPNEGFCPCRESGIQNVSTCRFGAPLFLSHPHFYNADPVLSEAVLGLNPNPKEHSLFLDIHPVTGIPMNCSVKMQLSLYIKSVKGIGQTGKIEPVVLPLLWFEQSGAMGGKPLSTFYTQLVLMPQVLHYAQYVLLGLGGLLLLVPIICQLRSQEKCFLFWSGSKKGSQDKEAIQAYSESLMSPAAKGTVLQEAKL

[2] = target: Arf-GAP with SH3 domain, ANK repeat and PH domain-containing protein 1 (Homo sapiens, UniProt Q9ULH1); assay type: functional;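 note: biochemical fluorescence polarization dose–response screen measuring inhibition of ASAP1; ASAP1 GAP domain stimulating GTP hydrolysis by truncated human ARF1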
[3] = target: ADP-ribosylation factor GTPase-activating protein 1 (Rattus norvegicus, UniProt Q62848); assay: Fluorescence polarization-based biochemical high throughput dose response screening assay to identify inhibitors of ADP-ribosylation factor GTPase activating protein 1 (ARFGAP1).; assay type: functional
[4] = T. cruzi growth inhibition in host cells, dose response, cell-based, plate reader, dry powder, set 2 (AID 652275); assay type: functional
[5] = HEK293 Cytotoxicity Assay Measured in Cell-Based System Using Plate Reader - 7071-01_Inhibitor_Dose_CherryPick_Activity_Set2.; assay type: functional
HEK293 = assay: HEK293T cell cytotoxicity, dose response, cytotoxicity control, ATP luminescence, cherry-pick samples (AID 687005); assay type: functional, cell-based; conditions: Homo sapiens;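 note: cells exposed to compound for 48 hours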
HeLa = assay: HeLa cell cytotoxicity, dose response, cytotoxicity control, ATP luminescence, cherry-pick samples (AID 687004); assay type: functional, cell-based; conditions: Homo sapiens
[6] = target: Matrix metalloproteinase-14 (Homo sapiens, UniProt P50281); assay: Dose Response confirmation of uHTS hits for a small molecule inhibitors of MT1-MMP activation in a fluorescence assay set 1.; assay type: functional
[7] = microbe, parasite or virus in culture; assay type: functional; conditions: Mycobacterium tuberculosis
[8] = Late stage assay provider results from the probe development effort to identify inhibitors of the Plasmodium falciparum M17 Leucine Aminopeptidase (M17LAP): radiolabel-based cell-based dose response assay to identify compounds that inhibit P. falciparum growth in RBCs Set 2.; assay type: functional
[9] = target: Long-chain-fatty-acid--AMP ligase FadD28 (Mycobacterium tuberculosis, UniProt P9WQ59); assay: Fluorescence polarization aasay to screen for inhibitors that compete for the binding of FadD28 to a bisubstrate Measured in Biochemical System Using Plate Reader - 2147-01_Inhibitor_Dose_CherryPick_Activity.; assay type: functional, Mycobacterium tuberculosis H37Rv
Beta-lactamase [10] = target: Beta-lactamase (Salmonella choleraesuis (strain SC-B67), UniProt Q5J463)
[11] = target: T2, Zinc finger protein mex-5 (Caenorhabditis elegans, UniProt Q9XUB2); assay: MEX-5/TCR-2 RNA interaction inhibitors, dose response, biochemical, C. elegans, fluorescence polarization (AID 1960)
T2 sequence (Q9XUB2 whole entry): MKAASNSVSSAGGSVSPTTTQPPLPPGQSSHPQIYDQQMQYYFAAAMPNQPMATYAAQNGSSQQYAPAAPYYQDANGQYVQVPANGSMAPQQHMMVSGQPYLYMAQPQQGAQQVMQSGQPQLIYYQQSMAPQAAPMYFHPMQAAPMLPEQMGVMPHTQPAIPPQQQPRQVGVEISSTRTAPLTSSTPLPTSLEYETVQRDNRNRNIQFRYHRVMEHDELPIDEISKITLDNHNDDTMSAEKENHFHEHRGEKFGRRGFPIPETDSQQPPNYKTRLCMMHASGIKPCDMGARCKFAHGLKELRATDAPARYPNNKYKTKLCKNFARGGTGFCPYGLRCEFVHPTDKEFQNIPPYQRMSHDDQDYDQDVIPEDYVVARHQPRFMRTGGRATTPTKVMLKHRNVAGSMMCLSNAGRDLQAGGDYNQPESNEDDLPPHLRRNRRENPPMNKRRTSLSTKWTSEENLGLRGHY

[12] = target: T3, RNA-binding protein pos-1 (Caenorhabditis elegans, UniProt G5EF15); assay: inhibitors of POS-1/mex-3 RNA binding, dose response, biochemical, fluorescence polarization (AID 1964);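 note: purified POS-1 fused to maltose binding protein made in E. coli; potency of compounds blocking POS-1 binding to fluorescent RNA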
T3 sequence (G5EF15 whole entry): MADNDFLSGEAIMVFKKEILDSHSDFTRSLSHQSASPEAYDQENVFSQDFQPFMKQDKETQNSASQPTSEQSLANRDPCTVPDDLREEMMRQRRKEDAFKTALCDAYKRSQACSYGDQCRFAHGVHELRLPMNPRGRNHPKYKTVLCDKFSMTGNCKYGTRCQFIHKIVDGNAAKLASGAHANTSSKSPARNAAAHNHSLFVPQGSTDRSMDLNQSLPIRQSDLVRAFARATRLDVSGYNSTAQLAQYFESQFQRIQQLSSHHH

Beta-lactamase [13] = target: Beta-lactamase (Pseudomonas aeruginosa, UniProt Q79MP6);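 note: biochemical dose-response test of metallo-beta-lactamase enzyme inhibition, read out by epi-absorbance; purified recombinant IMP-1 metallo-beta-lactamase with nitrocefin as substrate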
[14] = HepG2 cell cytotoxicity, dose response, cytotoxicity control for non-replicating M. tuberculosis project (AID 489018); assay type: functional; conditions: Mycobacterium tuberculosis
[15] = target: T4, Sentrin-specific protease 8 (Homo sapiens, UniProt Q96LD8); assay type: functional
T4 sequence (Q96LD8 whole entry): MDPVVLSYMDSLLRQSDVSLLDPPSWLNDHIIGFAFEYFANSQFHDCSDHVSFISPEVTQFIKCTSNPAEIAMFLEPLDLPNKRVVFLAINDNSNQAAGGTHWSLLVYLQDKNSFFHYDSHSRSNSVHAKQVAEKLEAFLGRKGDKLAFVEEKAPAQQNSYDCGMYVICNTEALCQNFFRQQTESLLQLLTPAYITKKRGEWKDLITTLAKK

[16] = cytotoxicity toward NIH3T3 fibroblasts, dose response, counter-screen, cell-based, ATP luminescence, mouse fibroblasts (AID 2010); assay type: functional;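 note: cells exposed to compound for about 90 hours before reading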
[17] = target: T4, Sentrin-specific protease 8; assay type: functional; remark: listed apart in the source
[18] = Vero E6 cell cytotoxicity, dose response, cytotoxicity control for non-replicating M. tuberculosis project, secondary assay (AID 492998); assay type: functional, VeroE6; conditions: Vero C1008
[19] = THP-1 cell cytotoxicity, dose response, cytotoxicity control for non-replicating M. tuberculosis project (AID 489025); assay type: functional
[20] = inhibitors of intracellular T. cruzi replication, confirmation, NIH3T3 host cells, beta-gal luminescence (AID 2044); assay type: functional, cell-based;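 note: intracellular parasites grown in NIH/3T3 mouse fibroblasts as host cells; luminescent beta-galactosidase reporter signal from transgenic T. cruzi replicating inside host cells; inhibitors lower the luminescence signal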
cells [21] = assay type: functional
Mu-type opioid receptor = Mu-type opioid receptor (Homo sapiens, UniProt P35372); assay type: functional, cell-based;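 note: U2OS cells with beta-arrestin recruitment to OPRM1 by beta-gal complementation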
[22] = target: 5-hydroxytryptamine receptor 2A (Mus musculus, UniProt P35363); assay type: functional, cell-based;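 note: CHO-K1 cells with tagged receptor and beta-arrestin; agonist potency measured as compound-induced activation of the receptor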
[23] = target: Broad substrate specificity ATP-binding cassette transporter ABCG2 (Homo sapiens, UniProt Q9UNQ0); assay: ABCG2 efflux pump inhibitors, dose response, Ig-MXP3 cells, flow cytometry (AID 1690); assay type: functional
[24] = target: T1, Scavenger receptor class B member 1; assay: inhibitors of SR-BI mediated HDL lipid uptake, dose response, ldlA[mSR-BI] cells, fluorescence, cherry pick (AID 493194); assay type: functional, cell-based;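 note: cellular uptake of fluorescent DiI-labeled HDL measured as cell fluorescence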
[25] = target: T5, DNA repair protein RAD52 homolog (Homo sapiens, UniProt P43351); assay type: functional, biochemical
T5 sequence (P43351 whole entry): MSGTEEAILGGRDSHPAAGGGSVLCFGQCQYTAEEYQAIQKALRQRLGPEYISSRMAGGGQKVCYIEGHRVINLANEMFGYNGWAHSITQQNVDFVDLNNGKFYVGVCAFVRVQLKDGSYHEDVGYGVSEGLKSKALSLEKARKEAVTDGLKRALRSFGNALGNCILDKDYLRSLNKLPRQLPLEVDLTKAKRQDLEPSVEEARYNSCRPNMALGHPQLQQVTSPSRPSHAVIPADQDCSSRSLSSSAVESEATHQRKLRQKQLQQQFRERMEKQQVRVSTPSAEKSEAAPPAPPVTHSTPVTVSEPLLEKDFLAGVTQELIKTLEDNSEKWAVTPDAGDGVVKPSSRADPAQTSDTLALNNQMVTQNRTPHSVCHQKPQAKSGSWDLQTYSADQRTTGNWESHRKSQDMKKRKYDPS

[26] = Counterscreen for activators of the function of SWI/SNF related, matrix associated, actin dependent regulator of chromatin, subfamily a, member 2 (SMARCA2, BRM): Luminescence-based cell-based high throughput dose response assay to identify non-selective compounds using the VP16 reporter assay.; assay type: functional
[27] = target: SWI/SNF-related matrix-associated actin-dependent regulator of chromatin subfamily A member 2 (Homo sapiens, UniProt P51531); assay: Luminescence-based cell-based high throughput dose response assay to identify activators of the function of SWI/SNF related, matrix associated, actin dependent regulator of chromatin, subfamily a, member 2 (SMARCA2, BRM).; assay type: functional
[28] = target: T6, DNA repair and recombination protein RAD54-like (Homo sapiens, UniProt Q92698); assay: inhibitors of human RAD54 branch migration, confirmation, biochemical, fluorescence, cherry-picked samples, dose series (AID 651657); assay type: functional
T6 sequence (Q92698 whole entry): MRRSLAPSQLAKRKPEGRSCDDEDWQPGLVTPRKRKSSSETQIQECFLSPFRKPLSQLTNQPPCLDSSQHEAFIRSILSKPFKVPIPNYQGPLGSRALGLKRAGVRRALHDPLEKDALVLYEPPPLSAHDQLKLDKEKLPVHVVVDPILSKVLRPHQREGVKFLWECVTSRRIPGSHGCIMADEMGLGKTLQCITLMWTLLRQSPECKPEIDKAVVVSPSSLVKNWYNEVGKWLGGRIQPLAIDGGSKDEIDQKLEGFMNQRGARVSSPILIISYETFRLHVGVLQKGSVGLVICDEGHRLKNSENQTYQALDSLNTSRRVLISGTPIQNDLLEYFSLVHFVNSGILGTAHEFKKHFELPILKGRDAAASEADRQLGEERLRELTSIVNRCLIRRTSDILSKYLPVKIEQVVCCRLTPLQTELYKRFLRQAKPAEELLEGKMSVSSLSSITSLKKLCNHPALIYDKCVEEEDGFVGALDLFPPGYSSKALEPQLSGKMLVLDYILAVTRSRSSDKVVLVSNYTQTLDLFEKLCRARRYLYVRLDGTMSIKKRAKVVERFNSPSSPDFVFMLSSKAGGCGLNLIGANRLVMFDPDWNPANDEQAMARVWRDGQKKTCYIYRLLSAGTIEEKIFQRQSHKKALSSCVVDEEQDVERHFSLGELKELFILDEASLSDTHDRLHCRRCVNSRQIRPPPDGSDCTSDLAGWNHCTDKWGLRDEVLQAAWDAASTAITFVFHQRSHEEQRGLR

[29] = MDA-MB-231 cell growth inhibition, dose response, cytotoxicity control for RAD54 inhibitor project, CellTiter-Glo luminescence, cherry-pick (AID 651692); assay type: functional, cell-based
[30] = target: Nuclear receptor subfamily 0 group B member 1 (Homo sapiens, UniProt P51843); assay type: functional, cell-based;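 note: HEK293T cells transfected with SF-1 and DAX-1 plus StAR promoter luciferase reporter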
cells [31] = assay type: functional, cell-based

Sequence of Beta-lactamase (Salmonella choleraesuis (strain SC-B67), UniProt Q5J463) (Q5J463 whole entry): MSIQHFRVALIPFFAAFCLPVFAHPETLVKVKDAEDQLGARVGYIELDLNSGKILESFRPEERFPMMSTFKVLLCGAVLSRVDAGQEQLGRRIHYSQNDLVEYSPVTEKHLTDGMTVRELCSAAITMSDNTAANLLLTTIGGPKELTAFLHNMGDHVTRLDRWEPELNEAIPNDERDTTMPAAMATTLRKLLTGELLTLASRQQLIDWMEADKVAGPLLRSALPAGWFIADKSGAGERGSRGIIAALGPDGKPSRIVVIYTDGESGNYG
Sequence of SWI/SNF-related matrix-associated actin-dependent regulator of chromatin subfamily A member 2 (P51531 whole entry): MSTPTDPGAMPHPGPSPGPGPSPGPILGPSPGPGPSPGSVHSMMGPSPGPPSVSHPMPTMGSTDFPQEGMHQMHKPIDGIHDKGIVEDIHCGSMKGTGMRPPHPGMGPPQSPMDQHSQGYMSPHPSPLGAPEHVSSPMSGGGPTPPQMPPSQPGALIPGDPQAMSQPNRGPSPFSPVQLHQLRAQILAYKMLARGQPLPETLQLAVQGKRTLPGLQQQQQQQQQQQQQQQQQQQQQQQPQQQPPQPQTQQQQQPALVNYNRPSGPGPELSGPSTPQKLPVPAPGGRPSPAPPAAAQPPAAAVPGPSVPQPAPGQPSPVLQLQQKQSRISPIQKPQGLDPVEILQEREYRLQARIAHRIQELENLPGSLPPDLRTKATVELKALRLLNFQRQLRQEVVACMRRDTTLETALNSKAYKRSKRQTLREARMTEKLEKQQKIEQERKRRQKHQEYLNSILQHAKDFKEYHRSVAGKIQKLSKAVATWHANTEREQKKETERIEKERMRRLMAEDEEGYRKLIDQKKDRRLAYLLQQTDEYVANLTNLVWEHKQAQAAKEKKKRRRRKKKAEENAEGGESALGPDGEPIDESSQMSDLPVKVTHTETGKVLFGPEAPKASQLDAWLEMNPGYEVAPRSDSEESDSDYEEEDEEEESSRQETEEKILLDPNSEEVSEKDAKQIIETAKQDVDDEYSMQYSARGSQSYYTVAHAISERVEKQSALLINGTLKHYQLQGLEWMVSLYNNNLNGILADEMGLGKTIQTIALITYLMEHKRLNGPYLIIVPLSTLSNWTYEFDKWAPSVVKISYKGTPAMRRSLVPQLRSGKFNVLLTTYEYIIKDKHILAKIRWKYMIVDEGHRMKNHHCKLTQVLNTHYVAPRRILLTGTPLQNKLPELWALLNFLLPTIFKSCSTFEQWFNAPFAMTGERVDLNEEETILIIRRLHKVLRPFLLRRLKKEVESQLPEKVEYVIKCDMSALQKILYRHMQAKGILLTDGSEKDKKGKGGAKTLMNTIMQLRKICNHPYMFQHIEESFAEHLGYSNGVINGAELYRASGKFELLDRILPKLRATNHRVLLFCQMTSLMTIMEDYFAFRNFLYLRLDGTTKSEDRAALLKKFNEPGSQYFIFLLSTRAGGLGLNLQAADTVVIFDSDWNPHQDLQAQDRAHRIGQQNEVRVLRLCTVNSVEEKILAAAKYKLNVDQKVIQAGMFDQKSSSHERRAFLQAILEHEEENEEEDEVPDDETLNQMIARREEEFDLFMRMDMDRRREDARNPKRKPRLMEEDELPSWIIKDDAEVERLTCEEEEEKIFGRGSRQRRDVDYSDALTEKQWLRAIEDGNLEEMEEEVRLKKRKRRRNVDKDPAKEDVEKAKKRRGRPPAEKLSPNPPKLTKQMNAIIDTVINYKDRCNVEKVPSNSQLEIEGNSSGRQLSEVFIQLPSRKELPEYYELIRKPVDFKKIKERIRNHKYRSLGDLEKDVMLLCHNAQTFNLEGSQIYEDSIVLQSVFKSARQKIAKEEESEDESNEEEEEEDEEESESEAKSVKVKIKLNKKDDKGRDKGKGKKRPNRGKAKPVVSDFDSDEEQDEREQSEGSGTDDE
Sequence of Nuclear receptor subfamily 0 group B member 1 (P51843 whole entry): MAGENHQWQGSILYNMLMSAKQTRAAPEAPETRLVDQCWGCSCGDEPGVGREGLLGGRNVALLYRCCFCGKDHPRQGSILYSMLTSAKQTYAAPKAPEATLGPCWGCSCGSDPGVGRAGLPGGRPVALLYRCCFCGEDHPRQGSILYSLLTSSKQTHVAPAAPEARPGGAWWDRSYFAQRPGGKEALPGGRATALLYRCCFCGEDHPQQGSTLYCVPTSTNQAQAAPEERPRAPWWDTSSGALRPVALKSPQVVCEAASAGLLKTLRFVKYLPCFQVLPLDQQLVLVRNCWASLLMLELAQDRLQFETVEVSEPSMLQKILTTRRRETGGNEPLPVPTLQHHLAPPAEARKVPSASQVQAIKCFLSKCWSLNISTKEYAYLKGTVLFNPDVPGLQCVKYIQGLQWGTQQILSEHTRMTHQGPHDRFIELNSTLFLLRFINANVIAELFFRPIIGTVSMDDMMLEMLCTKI
Sequence of ADP-ribosylation factor GTPase-activating protein 1 (Q62848 whole entry): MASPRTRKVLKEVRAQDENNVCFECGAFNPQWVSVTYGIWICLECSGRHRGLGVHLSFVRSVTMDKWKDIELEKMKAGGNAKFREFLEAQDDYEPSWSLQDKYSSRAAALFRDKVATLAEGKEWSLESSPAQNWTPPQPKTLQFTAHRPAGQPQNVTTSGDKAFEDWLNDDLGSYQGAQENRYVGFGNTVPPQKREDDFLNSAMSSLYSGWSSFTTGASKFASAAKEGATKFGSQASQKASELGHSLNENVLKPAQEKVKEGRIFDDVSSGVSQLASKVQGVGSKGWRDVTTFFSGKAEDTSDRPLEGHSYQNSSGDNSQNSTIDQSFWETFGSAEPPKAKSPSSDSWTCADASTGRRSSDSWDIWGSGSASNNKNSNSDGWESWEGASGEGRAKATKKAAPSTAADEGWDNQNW
Sequence of Mu-type opioid receptor (P35372 whole entry): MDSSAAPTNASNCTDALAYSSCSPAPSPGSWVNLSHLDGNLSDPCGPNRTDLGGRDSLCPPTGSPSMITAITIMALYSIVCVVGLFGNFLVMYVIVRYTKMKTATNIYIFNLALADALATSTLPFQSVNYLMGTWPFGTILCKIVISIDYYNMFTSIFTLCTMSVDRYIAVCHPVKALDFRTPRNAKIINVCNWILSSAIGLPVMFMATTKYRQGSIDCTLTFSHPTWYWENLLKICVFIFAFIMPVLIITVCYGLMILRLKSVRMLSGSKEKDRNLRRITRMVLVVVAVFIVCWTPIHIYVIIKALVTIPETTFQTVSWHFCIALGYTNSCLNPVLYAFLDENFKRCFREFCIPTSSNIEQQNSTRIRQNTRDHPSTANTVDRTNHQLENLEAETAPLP
Sequence of Broad substrate specificity ATP-binding cassette transporter ABCG2 (Q9UNQ0 whole entry): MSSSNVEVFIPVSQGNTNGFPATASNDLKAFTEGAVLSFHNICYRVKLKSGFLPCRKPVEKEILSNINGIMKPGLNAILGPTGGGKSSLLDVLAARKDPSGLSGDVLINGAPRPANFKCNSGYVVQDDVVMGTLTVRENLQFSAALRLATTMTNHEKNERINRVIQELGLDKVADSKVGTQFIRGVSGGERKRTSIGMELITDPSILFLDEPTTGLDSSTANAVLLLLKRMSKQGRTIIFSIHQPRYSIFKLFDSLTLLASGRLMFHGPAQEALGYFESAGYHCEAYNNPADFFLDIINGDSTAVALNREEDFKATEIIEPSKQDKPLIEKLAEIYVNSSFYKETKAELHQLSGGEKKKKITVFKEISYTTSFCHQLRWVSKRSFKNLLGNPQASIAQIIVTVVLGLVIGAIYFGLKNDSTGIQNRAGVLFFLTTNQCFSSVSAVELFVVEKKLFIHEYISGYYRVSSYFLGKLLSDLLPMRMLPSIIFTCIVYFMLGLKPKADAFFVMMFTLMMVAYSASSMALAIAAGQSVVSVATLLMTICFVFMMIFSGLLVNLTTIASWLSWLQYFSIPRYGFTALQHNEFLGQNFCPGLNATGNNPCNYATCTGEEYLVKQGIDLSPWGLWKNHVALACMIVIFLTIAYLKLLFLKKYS
Sequence of 5-hydroxytryptamine receptor 2A (P35363 whole entry): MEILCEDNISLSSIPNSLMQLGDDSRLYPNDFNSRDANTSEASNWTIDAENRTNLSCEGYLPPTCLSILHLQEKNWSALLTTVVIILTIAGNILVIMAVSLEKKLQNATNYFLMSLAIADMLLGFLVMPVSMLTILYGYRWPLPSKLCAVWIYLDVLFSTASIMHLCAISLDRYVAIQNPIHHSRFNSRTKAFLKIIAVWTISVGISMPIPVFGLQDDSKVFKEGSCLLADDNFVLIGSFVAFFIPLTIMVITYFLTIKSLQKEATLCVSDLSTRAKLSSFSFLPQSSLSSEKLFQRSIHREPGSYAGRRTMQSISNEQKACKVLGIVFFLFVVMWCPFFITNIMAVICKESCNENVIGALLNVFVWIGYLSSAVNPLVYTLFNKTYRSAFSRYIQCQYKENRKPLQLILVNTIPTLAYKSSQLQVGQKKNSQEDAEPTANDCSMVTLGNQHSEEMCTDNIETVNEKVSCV
Sequence of Long-chain-fatty-acid--AMP ligase FadD28 (P9WQ59 whole entry): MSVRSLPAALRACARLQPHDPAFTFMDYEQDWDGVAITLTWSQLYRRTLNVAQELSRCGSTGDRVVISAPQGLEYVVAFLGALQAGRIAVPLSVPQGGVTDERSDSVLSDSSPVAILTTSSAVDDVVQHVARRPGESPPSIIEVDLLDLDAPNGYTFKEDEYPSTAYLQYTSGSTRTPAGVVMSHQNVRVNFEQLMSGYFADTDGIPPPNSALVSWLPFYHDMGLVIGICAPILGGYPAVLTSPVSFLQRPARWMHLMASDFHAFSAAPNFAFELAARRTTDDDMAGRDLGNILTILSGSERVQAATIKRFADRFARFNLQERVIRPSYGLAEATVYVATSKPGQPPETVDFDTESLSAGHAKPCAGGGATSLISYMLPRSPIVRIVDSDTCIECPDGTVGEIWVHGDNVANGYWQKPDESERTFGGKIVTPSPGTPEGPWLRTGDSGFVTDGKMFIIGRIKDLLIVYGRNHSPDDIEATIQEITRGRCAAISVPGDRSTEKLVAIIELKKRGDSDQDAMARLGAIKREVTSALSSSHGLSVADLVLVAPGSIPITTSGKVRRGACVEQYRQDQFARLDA

Structure (SMILES): CC(C)NC(=O)Nc1ccc2c(c1)C(=O)N([C@@H](C)CO)C[C@@H](C)[C@@H](CN(C)S(=O)(=O)c1ccc(Cl)cc1)O2
- AC50 [1]: 69.6 µM (active)

Structure (SMILES): COc1ccc([N+](=O)[O-])cc1NC(=O)c1ccc(Br)s1
- IC50 [2]: 20.8 µM (inactive)
- IC50 [3]: 35.6 µM (inactive)

Structure (SMILES): CN(C)C(=O)c1ccc(-c2ccc([C@H]3[C@H](CO)N4CCCCN(C(=O)C5CCC5)C[C@@H]34)cc2)cc1
- AC50 [4]: 0.072 µM (active)

Structure (SMILES): C[C@H]1CN([C@@H](C)CO)S(=O)(=O)c2ccc(C#Cc3ccccn3)cc2O[C@@H]1CN(C)Cc1ccccc1
- AC50 [5]: 24.2 µM (active)
- AC50 (HEK293): 24.2 µM (active)
- AC50 (HeLa): > 52 µM (inactive)

Structure (SMILES): COc1ccc(-c2oc3ccc(-c4ccc(OC)nc4)cc3c2C#CC2(O)CCCCC2)cc1
- IC50 [6]: 5.57 µM (active)
- CC50 [7]: > 40 µM (active)

Structure (SMILES): CCC(C)Oc1ccc(CC(=O)NO)cc1 (centres undefined)
- IC50 [8]: 16.3 µM (inactive)

Structure (SMILES): O=[N+]([O-])c1ccc(CNc2ccc(Cl)cc2)s1
- AC50 [9]: > 100 µM (inactive)

Structure (SMILES): COc1ccc(/C=C2\CCCc3c2nc2ccccc2c3C(=O)O)cc1OC
- IC50 (Beta-lactamase [10]): 11.2 µM (inactive)
- EC50 [11]: 8.26 µM (inconclusive)
- EC50 [12]: 9.28 µM (active)
- IC50 (Beta-lactamase [13]): > 59.6 µM (inactive)

Structure (SMILES): Cc1ccccc1NCC(=O)N/N=C\c1ccc([N+](=O)[O-])s1
- CC50 [14]: 16 µM (active)
- IC50 [15]: 90.4 µM (inactive)
- EC50 [16]: > 60 µM (not active)
- IC50 [17]: 46.7 µM (active)
- CC50 [18]: 13.8 µM (active)
- CC50 [19]: 18.8 µM (active)
- EC50 [20]: 0.506 µM (active)
- IC50 (cells [21]): 5.71 µM (active)

Structure (SMILES): Cc1ccc(CN2CCN(C(=O)c3ccco3)CC2)cc1
- EC50 (Mu-type opioid receptor): 92.5 µM (inactive)
- EC50 [22]: 0.475 µM (active)

Structure (SMILES): Cc1c(C(=O)Nc2ccc(F)cc2)c2ccccn2c1CCc1ccncc1
- EC50 [23]: 6.84 µM (inactive)
- AC50 [24]: 20.4 µM (active)

Structure (SMILES): COc1cc(Nc2c3ccccc3nc3ccccc23)cc(OC)c1OC
- AC50 [25]: 5.17 µM (active)
- EC50 [26]: > 91.2 µM (inactive)
- EC50 [27]: > 91.2 µM (inactive)
- AC50 [28]: 14.8 µM (active)
- AC50 [29]: 29.2 µM (active)

Structure (SMILES): CC(=Nc1ccccc1)C1=C(O)C(Cc2cccc(F)c2)NC1=O (centres undefined)
- IC50 [30]: > 67.5 µM (inactive)
- IC50 (cells [31]): > 67.5 µM (inactive)
